# In PMC5931096, “A Phase I study of the novel immunomodulatory agent PG545 (pixatimod) in subjects with advanced solid tumours” (British Journal of Cancer, 2018):
# Test: Phase I dose-escalation: safety, tolerability, DLT and MTD of weekly 1-h IV infusion
# Type: in vivo
# Experimental: The study was an open-label, multicentre, phase 1 dose-escalation study using a 3 + 3 design. The primary objective was to determine the MTD of weekly administered PG545 via IV infusion. Secondary objectives were to characterize safety, tolerability, clinical activity, PK and PD biomarkers.
# Patients continued treatment until disease progression, unacceptable toxicity or withdrawal (either voluntarily or investigator-decision).
# All patients were assessed for safety, those who received at least one dose of PG545 were evaluated for efficacy. Safety assessment included the incidence of all adverse events (AEs), irrespective of relationship to study drug, according to the National Cancer Institute Common Terminology Criteria for Adverse Events, version 4.0, and the incidence of patients experiencing dose modifications and/or premature discontinuation of study drug. Dose-limiting toxicities (DLTs) used to determine the MTD were defined as occurring during Cycle 1 of treatment only and related to PG545 according to investigator assessment. If no DLT occurred in the first three subjects, the next three-subject cohort was enrolled at the next highest available dose level. If a single DLT occurred, an additional three subjects was enrolled at the same dose level. Dose escalation continued until two subjects of the cohort experienced a DLT; this was defined as the toxic dose level. The dose-escalation phase was completed and MTD determined by reducing the dose to the next lowest dose compared to the toxic dose and expanding this cohort to at least 6 subjects.
# [1] = Moderate, Unrelated, Safety Set
structure (smiles),measurement,setting,value
CC(C)CCC[C@@H](C)[C@H]1CC[C@H]2[C@@H]3CC[C@H]4C[C@@H](O[C@@H]5O[C@H](COS(=O)(=O)O)[C@@H](O[C@H]6O[C@H](COS(=O)(=O)O)[C@@H](O[C@H]7O[C@H](COS(=O)(=O)O)[C@@H](O[C@H]8O[C@H](COS(=O)(=O)O)[C@@H](OS(=O)(=O)O)[C@H](OS(=O)(=O)O)[C@H]8OS(=O)(=O)O)[C@H](OS(=O)(=O)O)[C@H]7OS(=O)(=O)O)[C@H](OS(=O)(=O)O)[C@H]6OS(=O)(=O)O)[C@H](OS(=O)(=O)O)[C@H]5OS(=O)(=O)O)CC[C@]4(C)[C@H]3CC[C@]12C [PG545],TEAE: General disorders and administration site conditions,[1],5 (21.7%)
same,TEAE: Groin pain,[1],1 (4.3%)
same,TEAE: Headache,[1],2 (8.7%)
same,TEAE: Hypoalbuminaemia,[1],1 (4.3%)
same,TEAE: Infections and infestations,[1],1 (4.3%)
same,TEAE: Insomnia,[1],1 (4.3%)
same,TEAE: Intestinal obstruction,[1],1 (4.3%)
same,TEAE: Investigations,[1],3 (13.0%)
same,TEAE: Malaise,[1],1 (4.3%)
same,TEAE: Metabolism and nutritional disorders,[1],4 (17.4%)
same,TEAE: Musculoskeletal and connective tissue disorders,[1],6 (26.1%)
same,TEAE: Musculoskeletal pain,[1],1 (4.3%)
same,TEAE: Nausea,[1],2 (8.7%)
same,TEAE: Nervous system disorders,[1],2 (8.7%)
same,TEAE: Neutrophil count increased,[1],1 (4.3%)
same,TEAE: Pain in extremity,[1],1 (4.3%)
same,TEAE: Platelet count increased,[1],1 (4.3%)
same,TEAE: Psychiatric disorders,[1],2 (8.7%)
same,"TEAE: Respiratory, thoracic and mediastinal disorders",[1],4 (17.4%)
same,TEAE: Upper respiratory tract infection,[1],1 (4.3%)
same,TEAE: White blood cell count increased,[1],1 (4.3%)
same,"Acute pulmonary oedema, related AE leading to discontinuation","Overall, N = 23",1 (4) n (%)
same,"Acute pulmonary oedema, related serious AE","Overall, N = 23",1 (4) n (%)
same,"Acute pulmonary oedema, related severe AE","Overall, N = 23",1 (4) n (%)
same,"Blood cholesterol increased, related severe AE","Overall, N = 23",1 (4) n (%)
same,"Blood cholesterol increased, treatment-related AE","Overall, N = 23",2 (9) n (%)
same,"Blood pressure increased, related severe AE","Overall, N = 23",1 (4) n (%)
same,"Chills, related AE leading to discontinuation","Overall, N = 23",1 (4) n (%)
same,"Chills, related severe AE","Overall, N = 23",2 (9) n (%)
same,"Chills, treatment-related AE","Overall, N = 23",5 (22) n (%)
same,"Decreased appetite, treatment-related AE","Overall, N = 23",5 (22) n (%)
same,"Diarrhoea, treatment-related AE","Overall, N = 23",4 (17) n (%)
same,"Epistaxis, related AE leading to discontinuation","Overall, N = 23",1 (4) n (%)
same,"Epistaxis, related serious AE","Overall, N = 23",1 (4) n (%)
same,"Epistaxis, related severe AE","Overall, N = 23",1 (4) n (%)
same,"Fatigue, related severe AE","Overall, N = 23",2 (9) n (%)
same,"Fatigue, treatment-related AE","Overall, N = 23",5 (22) n (%)
same,"Headache, treatment-related AE","Overall, N = 23",2 (9) n (%)
same,"Hypercholesterolemia, treatment-related AE","Overall, N = 23",2 (9) n (%)
same,"Hyperlipidaemia, related severe AE","Overall, N = 23",1 (4) n (%)
same,"Hypertension, related AE leading to discontinuation","Overall, N = 23",1 (4) n (%)
same,"Hypertension, related serious AE","Overall, N = 23",1 (4) n (%)
same,"Hypertension, related severe AE","Overall, N = 23",5 (22) n (%)
same,"Hypertension, treatment-related AE","Overall, N = 23",6 (26) n (%)
same,"Hypovolaemia, related serious AE","Overall, N = 23",1 (4) n (%)
same,"Infusion-related reaction, related serious AE","Overall, N = 23",1 (4) n (%)
same,"Infusion-related reaction, related severe AE","Overall, N = 23",1 (4) n (%)
same,"Infusion-related reaction, treatment-related AE","Overall, N = 23",5 (22) n (%)
same,"Injection site reaction, treatment-related AE","Overall, N = 23",2 (9) n (%)
same,"Nausea, treatment-related AE","Overall, N = 23",5 (22) n (%)
same,"Pyrexia, related AE leading to discontinuation","Overall, N = 23",1 (4) n (%)
same,"Pyrexia, related serious AE","Overall, N = 23",1 (4) n (%)
same,"Pyrexia, related severe AE","Overall, N = 23",1 (4) n (%)
same,"Pyrexia, treatment-related AE","Overall, N = 23",5 (22) n (%)
same,TEAE: Acute pulmonary oedema,"Severe, Related, Safety Set",1 (4.3%)
same,TEAE: At least one event,"Severe, Related, Safety Set",11 (47.8%)
same,TEAE: Blood cholesterol increased,"Severe, Related, Safety Set",1 (4.3%)
same,TEAE: Blood pressure increased,"Severe, Related, Safety Set",1 (4.3%)
same,TEAE: Chills,"Severe, Related, Safety Set",2 (8.7%)
same,TEAE: Epistaxis,"Severe, Related, Safety Set",1 (4.3%)
same,TEAE: Fatigue,"Severe, Related, Safety Set",2 (8.7%)
same,TEAE: General disorders and administration site conditions,"Severe, Related, Safety Set",4 (17.5%)
same,TEAE: Hyperlipidaemia,"Severe, Related, Safety Set",1 (4.3%)
same,TEAE: Hypertension,"Severe, Related, Safety Set",5 (21.7%)
same,TEAE: Infusion related reaction,"Severe, Related, Safety Set",1 (4.3%)
same,"TEAE: Injury, poisoning and procedural complications","Severe, Related, Safety Set",1 (4.3%)
same,TEAE: Investigations,"Severe, Related, Safety Set",2 (8.7%)
same,TEAE: Metabolism and nutritional disorders,"Severe, Related, Safety Set",1 (4.3%)
same,TEAE: Pyrexia,"Severe, Related, Safety Set",1 (4.3%)
same,"TEAE: Respiratory, thoracic and mediastinal disorders","Severe, Related, Safety Set",2 (8.7 %)
same,TEAE: Vascular disorders,"Severe, Related, Safety Set",5 (21.7%)
same,TEAE: AST increased,"Severe, Unrelated, Safety Set",1 (4.3%)
same,TEAE: Anaemia,"Severe, Unrelated, Safety Set",1 (4.3%)
same,TEAE: At least one event,"Severe, Unrelated, Safety Set",7 (30.4%)
same,TEAE: Blood ALP increased,"Severe, Unrelated, Safety Set",2 (8.7%)
same,TEAE: Blood and lymphatic system disorders,"Severe, Unrelated, Safety Set",1 (4.3%)
same,TEAE: Chest pain,"Severe, Unrelated, Safety Set",1 (4.3%)
same,TEAE: Constipation,"Severe, Unrelated, Safety Set",1 (4.3%)
same,TEAE: Dehydration,"Severe, Unrelated, Safety Set",1 (4.3%)
same,TEAE: Dysuria,"Severe, Unrelated, Safety Set",1 (4.3%)
same,TEAE: GGT increased,"Severe, Unrelated, Safety Set",1 (4.3%)
same,TEAE: Gastrointestinal disorders,"Severe, Unrelated, Safety Set",2 (8.7 %)
same,TEAE: General disorders and administration site conditions,"Severe, Unrelated, Safety Set",1 (4.3%)
same,TEAE: Hyponatraemia,"Severe, Unrelated, Safety Set",1 (4.3%)
same,TEAE: Infections and infestations,"Severe, Unrelated, Safety Set",1 (4.3%)
same,TEAE: Investigations,"Severe, Unrelated, Safety Set",2 (8.7%)
same,TEAE: Lower respiratory tract infection,"Severe, Unrelated, Safety Set",1 (4.3%)
same,TEAE: Metabolism and nutritional disorders,"Severe, Unrelated, Safety Set",2 (8.7%)
same,TEAE: Renal and urinary disorders,"Severe, Unrelated, Safety Set",1 (4.3%)
same,TEAE: Small intestinal obstruction,"Severe, Unrelated, Safety Set",1 (4.3%)
same,"Serious adverse events (SAEs), number",all cohorts,12
same,"Treatment-related hypertension, occurrences",all cohorts,six
same,SAEs resulting in withdrawal or discontinuation,in vivo,Five
same,"SAEs possibly, likely or certainly related to PG545",investigator assessment,Six
same,SAEs graded mild,of the 12 SAEs,one
same,SAEs graded severe,of the 12 SAEs,nine
same,SAEs graded fatal,"of the 12 SAEs, death due to disease progression",two
same,Duration of hypertensive episodes,transient,< 24 h
same,Maximum-tolerated dose (MTD),weekly 1-h IV infusion,100 mg
same,Toxic dose,weekly 1-h IV infusion,150 mg
